Cytotoxicity data for 95 compounds are collected here from ChEMBL document CHEMBL3507680, “University of Dundee, Gates Library screen for HepG2 cell viability”.

A short description of this data set: Human HepG2 cell viability assay in 384 well format. It is filed as toxicity, cell-based. Also noted: dose 125 nL, time 70.5 hour; cytotoxicity at 70.5 h: concentration not given beside the values. The note with it: HepG2 cells, read-out: Inhibition.
For `CS(=O)(=O)N1CCCN(c2nccn3cnnc23)CC1`, the cytotoxicity at 70.5 h is -6.97%.

`CCc1cnc(NC(=O)NC2CCN(C)CC2)s1`: the cytotoxicity at 70.5 h stood at 10.3%. The figure for `c1csc(N2CCCN(c3nccn4cnnc34)CC2)n1` is 3.4%. In the case of `O=C(NCc1ccncc1)N1CC(Cc2ccccc2F)C1`, the cytotoxicity at 70.5 h is -5.27%. The figure for `COc1cc(-n2cccc2)c(Cl)cc1C(N)=O` is -3.56%; for `CC(C)CS(=O)(=O)NC(=O)c1ccc2c(c1)ncn2C` it is -4.45%; for `Cn1cnc2cc(C(=O)NS(=O)(=O)CC3CCCC3)ccc21` it is 0.122%. In the case of `CCn1cc(CNC2CCN(c3c(F)cccc3F)C2)cn1` (stereo not given), the cytotoxicity at 70.5 h is -0.658%. The figure for `CC(CS(C)(=O)=O)N(C(=O)CCc1cccc(F)c1)C1CC1` (stereo not given) is 12.6%; for `CN(C)C(=O)N1CCN(C(=O)c2ccn3ccnc3c2)CC1` it is -3.58%. As to `Cc1ccc(N(C)C2CCCN(C(=O)Nc3ccc(F)cc3F)C2)cc1` (stereo not given), the cytotoxicity at 70.5 h is -2.7%. `COCCN1CCN(CCCc2nnnn2-c2ccccc2)CC1`: the cytotoxicity at 70.5 h was -14.2%. The value for `Cc1ccc(C(=O)Nc2ccc(N3CCCC3)cn2)cc1F` was 19.7%; that for `c1cnc(N2CCN(Cc3nnnn3C3CC3)CC2)nc1` was -16.2%; that for `CCCNC(=O)CN1CCOC(c2ccc(Br)cc2)C1` (stereo not given) was -6.67%.

`CNC(=O)NC(=O)CCN1CCOC(c2ccc(Br)cc2)C1` (stereo not given): the cytotoxicity at 70.5 h was -7.41%. As to `CN(C)S(=O)(=O)c1ccc(CN2CCC(C(N)=O)CC2)o1`, the cytotoxicity at 70.5 h was -2.97%. For `CC(=O)N1CCN(C(=O)NCCCc2cn[nH]c2C)CC1`, the cytotoxicity at 70.5 h is -14.4%. The figure for `Cc1n[nH]cc1CNCC(c1cccc(F)c1)N(C)C` (stereo not given) is -1.43%; for `Cn1nccc1C(=O)N1C[C@@H]2CN(S(C)(=O)=O)CCO[C@@H]2C1` it is -3.72%; for `O=C1CCCN1Cc1nnc2n1CCCN(C(=O)c1ccco1)C2` it is 22.7%. Regarding `CO[C@H]1CC[C@H]2[C@H]1OCCN2C(=O)c1nn(C)c2ccccc12`, the cytotoxicity at 70.5 h was -3.21%. The figure for `CCN1CCNC(=O)C12CCN(C(=O)c1ccccn1)CC2` is 18.3%; for `Cc1ccc2c(n1)N(CC1CC1)CCN(Cc1cnn(C)c1)C2` it is 30.4%. For the compound `CCO[C@H]1CC[C@H]2[C@H]1OCCN2C(=O)CC1=CCCCC1`, the cytotoxicity at 70.5 h stood at 24%. On to `Cc1ccc2c(n1)N(C)CCN(Cc1cnn(C)c1)C2`, for which the cytotoxicity at 70.5 h was -2.39%. Turning to `COCCn1c2c(ccc1=O)CCN(C(=O)Cc1cccs1)CC2`, the cytotoxicity at 70.5 h was -5.4%. For the compound `COc1cc(N2CCC3(CC2)CN(S(C)(=O)=O)c2ccccc23)ncn1`, the cytotoxicity at 70.5 h was -2.83%. The value for `COCCn1c2c(ccc1=O)CCN(C(=O)Cc1ccsc1)CC2` was 2.04%; that for `O=C(C1CC(F)(F)C1)N1C[C@@H]2CN(Cc3ccoc3)CCO[C@@H]2C1` was -3.45%; that for `CS(=O)(=O)N1CCO[C@@H]2CN(C(=O)C3CC(F)(F)C3)C[C@@H]2C1` was -3.63%. The value for `CN1[C@H](CN2CCCC2)C[C@@H]2CN(C(=O)c3cnccn3)CC[C@@H]21` was -4.55%. Consider `Cc1occc1C(=O)N1C[C@@H]2CCCO[C@@H]2[C@H](NS(C)(=O)=O)C1`, for which the cytotoxicity at 70.5 h is -1.97%. As for `O=C(CC1CC1)N[C@@H]1CN(C(=O)c2ccsc2)C[C@@H]2CCCO[C@@H]21`, the cytotoxicity at 70.5 h was -1.55%. Regarding `Cc1ccc(N2CCC3(CCN(Cc4csc(C)n4)C3=O)C2)nn1` (stereo not given), the cytotoxicity at 70.5 h was -3.25%.

Turning to `COc1cc(N2CCC3(CCN(Cc4cccnc4)C3=O)C2)ncn1` (stereo not given), the cytotoxicity at 70.5 h was -4.34%.

Consider `Cn1nc(CNc2ncccn2)c2c1CN(c1cnccn1)CC2`, for which the cytotoxicity at 70.5 h was -8.13%. The figure for `O=C(c1ccco1)N1CCO[C@@H]2CNC[C@@H]21` is -6.25%; for `Cn1cc(CN2C[C@@H]3CN(C(=O)c4cccn4C)CCO[C@@H]3C2)cn1` it is -2.93%; for `CC(=O)N1CC[C@H]2N(C)CC[C@@]2(C(=O)Nc2cccnc2)CC1` it is -8.43%. Consider `CCOCC1CN(C(=O)c2ccoc2)Cc2cnn(C)c21` (stereo not given), for which the cytotoxicity at 70.5 h was determined as 13.6%.

Turning to `O=C(c1ccco1)N1Cc2cnn(CC3CC3)c2C(COCC2CC2)C1` (stereo not given), the cytotoxicity at 70.5 h amounted to 15.4%. For the compound `Cn1ncc2c1C(COCC1CC1)CN(C(=O)c1ccoc1)C2` (stereo not given), the cytotoxicity at 70.5 h was 14.1%. The value for `CCn1nnc2c1C(COCC(=O)N(C)C)CN(Cc1ccoc1)C2` (stereo not given) was -0.882%; that for `O=C(c1ccsc1)N1C[C@@H]2CCN(C(=O)c3cscn3)[C@@H]2C1` was -6.91%; that for `Cn1cc(-c2cnc(-c3ccnn3C)nc2)cc1C(=O)N1CCCC1` was -4.76%. The figure for `O=c1ccc2c(n1CCN1CCCC1)CCN(c1ncccn1)CC2` is -4.06%. For the compound `CC(=O)N1CCO[C@@H]2CN(S(=O)(=O)c3ccc(F)cc3)CC[C@@H]2C1`, the cytotoxicity at 70.5 h was -6.92%. The value for `c1cnc(N2CCc3onc(CN4CCOCC4)c3C2)cn1` was -9.12%; that for `COCC1COCCC12CCN(S(=O)(=O)c1ccccc1)CC2` (stereo not given) was 0.595%; that for `CC[C@H](C)Nc1nccc(-c2cnc3sc(C)cn3c2=O)n1` was -5.35%. Consider `NS(=O)(=O)NCc1cc(-c2ccc(C(F)(F)F)cc2)n[nH]1`, for which the cytotoxicity at 70.5 h is -5.31%. The figure for `N#Cc1ccc(Nc2nc3c(s2)C(=O)CN(CC2CC2)C3)cc1` is -4.09%; for `CN(C)c1ncc(-c2ccc(NC(=O)[C@@H]3CCCCN3)cc2)cn1` it is -0.758%.

Consider `CN(C)CCN1CCN(C)c2nc(-c3ccccc3)ncc2C1=O`, for which the cytotoxicity at 70.5 h was -9.02%. Take `COc1cc(OC)cc(-c2cc(CN)nc3ccnn23)c1`: the cytotoxicity at 70.5 h is -4.26%. For the compound `CN(C)C(=O)CO[C@H]1CN(Cc2ccoc2)[C@@H]2COC[C@H]12`, the cytotoxicity at 70.5 h was -5.51%.

In the case of `CN(C)C(=O)CO[C@H]1CN(Cc2ccc3c(c2)OCO3)[C@@H]2COC[C@H]12`, the cytotoxicity at 70.5 h is -4.69%.

Take `CN1CCO[C@@H]2CN(S(=O)(=O)c3ccccc3)C[C@@H]2C1`: the cytotoxicity at 70.5 h worked out at 20.2%. `O=C(C1CC(F)(F)C1)N1C[C@@H]2CN(CC3CCCC3)CCO[C@@H]2C1`: the cytotoxicity at 70.5 h was 22.1%.

Consider `COc1ccc(C[C@H]2CN(Cc3ccoc3)CC[C@H]2OC)cc1`, for which the cytotoxicity at 70.5 h is -0.279%. For the compound `CCN1CCN(C)C(=O)C12CCN(C(=O)Cc1ccccn1)CC2`, the cytotoxicity at 70.5 h worked out at 0.951%. Take `CO[C@@H]1CCN(Cc2ccoc2)[C@H]1Cc1ccccc1`: the cytotoxicity at 70.5 h was -5.28%. The value for `O=C(O)[C@]12CCCN(C3CCOC3)C[C@H]1CN(c1nncs1)C2` (stereo not given in full) was -7.95%; that for `COc1cc(N2CCC3(CCCN(Cc4ccccn4)C3)C2)ncn1` (stereo not given) was -5.46%.

On to `Cc1cnc(N2C[C@@H]3CN(C4CCOC4)CCC[C@]3(C(=O)O)C2)nc1` (stereo not given in full), for which the cytotoxicity at 70.5 h was -7.9%.

For `COc1cc(N2CCC3(CCN(Cc4csc(C)n4)C3)CC2)ncn1`, the cytotoxicity at 70.5 h is -5.2%.

For the compound `COc1cc(N2CCC3(CCN(Cc4csc(C)n4)C3=O)C2)ncn1` (stereo not given), the cytotoxicity at 70.5 h was -7.86%. For `Cc1cnc(C(=O)N2Cc3ncn(C)c3C(COCC(C)C)C2)cn1` (stereo not given), the cytotoxicity at 70.5 h is -4.87%. `CCN1Cc2ccccc2CC2(CCN(CC(=O)O)CC2)C1=O`: the cytotoxicity at 70.5 h was 15.3%. The figure for `CN1Cc2ccccc2CC2(CCN(CCO)CC2)C1=O` is 18%. The value for `Cc1ccc(CN2CC[C@@H]3OCCN(S(C)(=O)=O)[C@H]3CC2)s1` was -3.31%; that for `CN(C)CCn1c2c(ccc1=O)CC(NC(=O)c1cnccn1)CC2` (stereo not given) was -10.4%. Regarding `Cc1ccc(N2CCC3(CN(CCO)CCC3(F)F)C2)nn1` (stereo not given), the cytotoxicity at 70.5 h is -6.24%.

Regarding `OCCN1CCC(F)(F)C2(CCN(c3cnccn3)C2)C1` (stereo not given), the cytotoxicity at 70.5 h was -5.87%. For `COCC1CN(C(=O)c2ccoc2)Cc2cnn(CC3CCOCC3)c21` (stereo not given), the cytotoxicity at 70.5 h was -9.06%. The value for `Cc1ccc(N2CCC3(CN(Cc4cccs4)CCC3(F)F)C2)nn1` (stereo not given) was -7.32%; that for `COCCN1CCN(S(=O)(=O)c2ccccc2)Cc2cccnc21` was -5.54%; that for `CN1CCO[C@@H]2CN(S(=O)(=O)c3cccs3)CC[C@@H]2C1` was -9.31%. The value for `Cc1ccc(N2CC[C@H](OCC3CC3)[C@@H]2Cc2cccnc2)nn1` was 1.2%.

Consider `c1cnc(N2CCO[C@@H]3CN(Cc4ccoc4)C[C@@H]3C2)nc1`, for which the cytotoxicity at 70.5 h is 4.32%. The value for `Cc1csc(NC(=O)[C@@H]2C[C@H]3[C@H](CCN3c3ncccn3)O2)n1` was 18.3%; that for `Cc1ccoc1C(=O)N1CC[C@H]2[C@H](C[C@@H](CN3CCCC3)N2C)C1` was 4.09%. Take `CN1CCC(N2CCC(C(=O)N(C)C)CC2)CC1`: the cytotoxicity at 70.5 h was -0.525%. For the compound `CN(C)C(=O)C1CCN(C2CCN(CC3CC3)CC2)CC1`, the cytotoxicity at 70.5 h is -5.51%. In the case of `Cn1nc(CN2CCCC2)c2c1CN(c1cnccn1)CC2`, the cytotoxicity at 70.5 h is -3.39%. The value for `O=C(O)CN1CCCC2(CCN2Cc2cccc(F)c2)C1` (stereo not given) was -1.42%; that for `CC(C)C(=O)N1CC[C@H]2N(C)CC[C@@]2(C(=O)Nc2cccnc2)CC1` was -10.9%.

On to `c1ccc(CN2CCC3(CC2)CCN(c2ccccn2)C3)nc1`, for which the cytotoxicity at 70.5 h is -10.3%. The value for `CCOCc1nn(CC2CC2)c2c1CN(Cc1cccs1)CC2` was -6.81%.

Regarding `CCn1nnc2c1C(COCCN(C)C)CN(Cc1ccco1)C2` (stereo not given), the cytotoxicity at 70.5 h is 11.5%. `Cc1ccc(N2CCC3(CN(Cc4ccncc4)CCC3(F)F)C2)nn1` (stereo not given): the cytotoxicity at 70.5 h is -1.36%. As for `CN(C)CCn1c2c(ccc1=O)CCN(Cc1cnn(C)c1)CC2`, the cytotoxicity at 70.5 h stood at 2.16%. Regarding `CN(C)CCOCc1cncc2c1CCN(C1CCOC1)C2` (stereo not given), the cytotoxicity at 70.5 h is -4.13%. The figure for `CC(C)OCc1nn(C)c2c1CN(Cc1cccs1)CC2` is -2.74%.
